The nature of data set [1]: solubility (physicochemical properties). From the text: (§1) The physicochemical and spectroscopic properties of the cephaibols according to the invention can be summarized as follows: […]
Data set [2] in a line: stability (physicochemical properties). The following applies: in neutral, mildly acidic and mildly alkaline medium.
Text: as §1

Square brackets hold non-standard residues; d marks the D form. Peptide text beside a SMILES is read from it. Hyp = O=C(O)[CH]1C[CH](O)CN1; Phe(ol) = N[CH](CO)Cc1ccccc1; Iva = CC[C](C)(N)C(=O)O; Aib = CC(C)(N)C(=O)O

From patent publication US7067112B2, “Cephaibols: novel antiparasitics from Acremonium tubakii, process for their production, and use thereof” (Sanofi-Aventis Deutschland GmbH, priority 1999, dated 2006) come the findings set out here.

`CCC(C)C(NC(=O)C(C)(C)NC(=O)C(CCC(N)=O)NC(=O)C(C)(CC)NC(=O)C(Cc1ccccc1)NC(C)=O)C(=O)NC(C(=O)NC(C)(C)C(=O)NC(CC(C)C)C(=O)NC(C)(C)C(=O)N1CCCC1C(=O)NC(CCC(N)=O)C(=O)NC(C)(C)C(=O)N1CC(O)CC1C(=O)NC(C)(C)C(=O)N1CCCC1C(=O)NC(Cc1ccccc1)C(=O)NC(CO)C(=O)O)C(C)O` (stereo not drawn) [Cephaibol Q, AcPhe-Iva-Gln-Aib-Ile-Thr-Aib-Leu-Aib-Pro-Gln-Aib-Hyp-Aib-Pro-Phe-Ser] (Ac-F[Iva]Q[Aib]IT[Aib]L[Aib]PQ[Aib][Hyp][Aib]PFS-OH; configuration not given here): in data set [1], the “solubility in polar organic solvents” value is “soluble” and the solubility in water entry is reported as “only slightly soluble”. Further, in data set [2], the stability result was “stable”.
Consider `CCC(C)C(NC(=O)C(C)(C)NC(=O)C(CCC(N)=O)NC(=O)C(C)(CC)NC(=O)C(Cc1ccccc1)NC(C)=O)C(=O)NC(C(=O)NC(C)(C)C(=O)NC(CC(C)C)C(=O)NC(C)(C)C(=O)N1CC(O)CC1C(=O)NC(CCC(N)=O)C(=O)NC(C)(C)C(=O)N1CC(O)CC1C(=O)NC(C)(C)C(=O)N1CCCC1C(=O)NC(Cc1ccccc1)C(=O)NC(CO)C(=O)O)C(C)O` (stereo not drawn) [Cephaibol P, AcPhe-Iva-Gln-Aib-Ile-Thr-Aib-Leu-Aib-Hyp-Gln-Aib-Hyp-Aib-Pro-Phe-Ser] (Ac-F[Iva]Q[Aib]IT[Aib]L[Aib][Hyp]Q[Aib][Hyp][Aib]PFS-OH; configuration not given here), for which, in data set [1], the “solubility in polar organic solvents” value was “soluble” and the solubility in water result is recorded as “only slightly soluble”. In data set [2], the stability result is on record as “stable”.
The matching figures for `CCC(C)(NC(=O)C(CC(C)C)NC(=O)CNC(=O)C(C)(C)NC(=O)C(C)(C)NC(=O)C(C)(C)NC(=O)C(C)(C)NC(=O)C(Cc1ccccc1)NC(C)=O)C(=O)NC(C)(C)C(=O)N1CC(O)CC1C(=O)NC(CCC(N)=O)C(=O)NC(C)(C)C(=O)N1CC(O)CC1C(=O)NC(C)(C)C(=O)N1CCCC1C(=O)NC(CO)Cc1ccccc1` (stereo not drawn) [Cephaibol C, AcPhe-Aib-Aib-Aib-Aib-Gly-Leu-Iva-Aib-Hyp-Gln-Aib-Hyp-Aib-Pro-Phe-ol] (Ac-F[Aib][Aib][Aib][Aib]GL[Iva][Aib][Hyp]Q[Aib][Hyp][Aib]P[Phe(ol)]; configuration not given here): “soluble”, “only slightly soluble” and “stable”.
Taken in the same sequence, the figures for `CCC(C)(NC(=O)C(CCC(N)=O)NC(=O)C1CC(O)CN1C(=O)C(C)(C)NC(=O)C(C)(C)NC(=O)C(CC(C)C)NC(=O)CNC(=O)C(C)(C)NC(=O)C(C)(C)NC(=O)C(C)(C)NC(=O)C(C)(C)NC(=O)C(Cc1ccccc1)NC(C)=O)C(=O)N1CC(O)CC1C(=O)NC(C)(C)C(=O)N1CCCC1C(=O)NC(CO)Cc1ccccc1` (stereo not drawn) [Cephaibol E, AcPhe-Aib-Aib-Aib-Aib-Gly-Leu-Aib-Aib-Hyp-Gln-Iva-Hyp-Aib-Pro-Phe-ol] (Ac-F[Aib][Aib][Aib][Aib]GL[Aib][Aib][Hyp]Q[Iva][Hyp][Aib]P[Phe(ol)]; configuration not given here) were “soluble”, “only slightly soluble” and “stable”.
For `CCC(C)(NC(=O)C(CC(C)C)NC(=O)C(C)NC(=O)C(C)(C)NC(=O)C(C)(C)NC(=O)C(C)(C)NC(=O)C(C)(C)NC(=O)C(Cc1ccccc1)NC(C)=O)C(=O)NC(C)(C)C(=O)N1CC(O)CC1C(=O)NC(CCC(N)=O)C(=O)NC(C)(CC)C(=O)N1CC(O)CC1C(=O)NC(C)(C)C(=O)N1CCCC1C(=O)NC(CO)Cc1ccccc1` (stereo not drawn) [Cephaibol A1, AcPhe-Aib-Aib-Aib-Aib-Ala-Leu-Iva-Aib-Hyp-Gln-Iva-Hyp-Aib-Pro-Phe-ol] (Ac-F[Aib][Aib][Aib][Aib]AL[Iva][Aib][Hyp]Q[Iva][Hyp][Aib]P[Phe(ol)]; configuration not given here), in data set [1], the “solubility in polar organic solvents” value was “soluble” and the solubility in water result is “only slightly soluble”. Moreover, in data set [2], the stability result is recorded as “stable”.
As to `CCC(C)(NC(=O)C(CC(C)C)NC(=O)CNC(=O)C(C)(CC)NC(=O)C(C)(C)NC(=O)C(C)(C)NC(=O)C(C)(C)NC(=O)C(Cc1ccccc1)NC(C)=O)C(=O)NC(C)(C)C(=O)N1CC(O)CC1C(=O)NC(CCC(N)=O)C(=O)NC(C)(CC)C(=O)N1CC(O)CC1C(=O)NC(C)(C)C(=O)N1CCCC1C(=O)NC(CO)Cc1ccccc1` (stereo not drawn) [Cephaibol B, AcPhe-Aib-Aib-Aib-Iva-Gly-Leu-Iva-Aib-Hyp-Gln-Iva-Hyp-Aib-Pro-Phe-ol] (Ac-F[Aib][Aib][Aib][Iva]GL[Iva][Aib][Hyp]Q[Iva][Hyp][Aib]P[Phe(ol)]; configuration not given here), in data set [1], the “solubility in polar organic solvents” value was “soluble” and the solubility in water result is reported as “only slightly soluble”. For the same compound, the stability entry in data set [2] is “stable”.
The matching figures for `CC(=O)NC(Cc1ccccc1)C(=O)NC(C)(C)C(=O)NC(C)(C)C(=O)NC(C)(C)C(=O)NC(C)(C)C(=O)NCC(=O)NC(CC(C)C)C(=O)NC(C)(C)C(=O)NC(C)(C)C(=O)N1CC(O)CC1C(=O)NC(CCC(N)=O)C(=O)NC(C)(C)C(=O)N1CC(O)CC1C(=O)NC(C)(C)C(=O)N1CCCC1C(=O)NC(CO)Cc1ccccc1` (stereo not drawn) [Cephaibol D, AcPhe-Aib-Aib-Aib-Aib-Gly-Leu-Aib-Aib-Hyp-Gln-Aib-Hyp-Aib-Pro-Phe-ol] (Ac-F[Aib][Aib][Aib][Aib]GL[Aib][Aib][Hyp]Q[Aib][Hyp][Aib]P[Phe(ol)]; configuration not given here): “soluble”, “only slightly soluble” and “stable”.
